Data reported in patent publication US20230203471A1, “METHOD AND PLATFORM FOR DISRUPTING INTRACELLULAR MICROTUBULES” (National Tsing Hua University, priority 2021, published 2023).

Assays:
[1] = test system: intracellular microtubules in HeLa cells; test: Live-cell imaging of MT disruption (MT filament area) in transfected HeLa cells; type: cell-based
Experimental: The procedures of live-cell imaging are as follows. Live transfected cells cultured on poly(d-lysine)-coated glass coverslips (Hecht Assistent) were treated with either 100 nM rapamycin for rapid induction of protein dimerization and translocation or MT-targeting agents (10 µM nocodazole or 500 µM colchicine) during imaging. Live-cell imaging was conducted on a Nikon T1 inverted fluorescence microscope (Nikon) with a 60× oil objective (Nikon), a Prime camera (Photometrics), and 37° C., 5% CO2 heat stage (Live Cell Instrument). Rapid recruitment of proteins of interest (POIs) was imaged at 5- or 10-sec intervals, whereas the process of MT disruption was imaged at 1-min intervals. Images were obtained using Nikon NIS-Elements AR software and processed with Huygens Deconvolution Software (Scientific Volume Imaging). Image analysis was mainly performed with Nikon NIS-Elements AR software.
The procedures of measurement of MT filament area are as follows. The MT filaments in living cells were labeled with EMTB-CFP-FRB and imaged in real time (RAW image). The rolling ball correction was used to remove the cytosol background from the RAW images, which was carried out with the Nikon NIS-Elements AR software. Images were processed to generate the binary MT filament pattern via the Otsu threshold and analyzed by Fiji software.
FIGS. 2D and 2E show rapidly recruiting engineered spastins onto MTs. […] The top three layers are cells that simultaneously express EMTB-CFP-FRB and dNSpastin3Q-YFP-FKBP. The lower three layers are cells that simultaneously express EMTB-CFP-FRB and dNSpastin-YFP-FKBP-C2Lact. The color bar on the right indicates the brightness value represented by the color of the FRET signal. […] Data are shown as the mean ± S.E.M. It was noteworthy that MT disruption triggered by dNSpastin3Q-YFP-FKBP upon rapamycin treatment (T½ = 11.05 ± 1.52 min) was much faster than that of dNSpastin-YFP-FKBP-C2Lact upon rapamycin treatment (T½ = 53.08 ± 8.08 min), and treatment of two common MTAs, nocodazole (10 µM; T½ = 54.02 ± 10.29 min), colchicine (500 µM; T½ = 94.28 ± 8.63 min; see FIGS. 2F to 2J). […] In FIG. 2H, HeLa cells transfected with the indicated constructs were treated with nocodazole (Noc)([…], a type of MTA), colchicine (Col)(500 µM, a type of MTA), or rapamycin (Rapa)(100 nM); scale bar, 10 µm. […] Data are shown as the mean ± S.E.M. Student’s t-tests were performed, with the resulting p-values indicated.

[2] = test system: intracellular microtubules in HeLa cells; test: as above; type: cell-based; conditions: nocodazole 3.3 µM

COC(=O)Nc1nc2ccc(C(=O)c3cccs3)cc2[nH]1 [nocodazole]
microtubules removed within one hour ([1]; 3.3 µM nocodazole): 31% | T½ of MT disruption ([1]; nocodazole 10 µM, HeLa cells): 54.02 ± 10.29 min | time required to disrupt half of the intracellular microtubules [2]: 106.86 ± 12.11 min
